Reference: patent US9018383B2, “Acylamino-substituted cyclic carboxylic acid derivatives and their use as pharmaceuticals” (Sanofi, priority 2009, dated 2015)

Each molecule was assayed against human Edg-2 receptor (Homo sapiens, UniProt Q92633) (assay: Determination of Edg-2 receptor inhibition by FLIPR measurements (LPA-mediated calcium liberation)). Details: CHO cells overexpressing human Edg-2 receptor, LPA 100 nM, fluo-4 calcium fluorescence; read-out: Inhibitory concentrations IC50 for inhibition of the Edg-2 receptor.
Type: cell-based
In short: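 CHO cells stably overexpressing human Edg-2, loaded with fluo-4 AM, were pre-incubated ~5 min with compound (≤0.3% DMSO), then stimulated with 100 nM LPA 18:1 in HBSS/HEPES/probenecid, pH 7.5. Peak calcium fluorescence over ~3 min, baseline-corrected, versus DMSO gave % inhibition; IC50 from triplicates.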

Sequence of human Edg-2 receptor (Q92633 whole entry): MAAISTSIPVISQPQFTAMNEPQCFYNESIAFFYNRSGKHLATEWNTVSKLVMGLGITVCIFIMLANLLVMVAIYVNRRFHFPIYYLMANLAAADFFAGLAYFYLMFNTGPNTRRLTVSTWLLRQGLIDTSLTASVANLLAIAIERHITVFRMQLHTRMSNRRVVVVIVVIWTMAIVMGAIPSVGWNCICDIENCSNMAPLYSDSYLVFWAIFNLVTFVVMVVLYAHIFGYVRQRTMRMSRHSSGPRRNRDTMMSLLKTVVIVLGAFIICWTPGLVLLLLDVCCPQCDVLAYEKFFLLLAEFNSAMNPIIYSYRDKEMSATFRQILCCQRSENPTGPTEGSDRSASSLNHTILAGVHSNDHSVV

Structure (SMILES)	IC50 [nM]
COc1ccc(C(=O)NC2(C(=O)O)CCC(=O)CC2)cc1OCCc1cccc(C)c1 [Example 55, 1-[4-Methoxy-3-(2-m-tolyl-ethoxy)-benzoylamino]-4-oxo-cyclohexanecarboxylic acid]	100 to 1000
O=C(NC1(C(=O)O)CCCCCC1)c1ccc(OCCO)c(OCCc2ccccc2)c1 [Example 422, 1-[4-(2-Hydroxy-ethoxy)-3-phenethyloxy-benzoylamino]cycloheptanecarboxylic acid]	100 to 1000
Cc1cccc(CCOc2ccc(C(=O)N[C@]3(C(=O)O)CC[C@@H](C)CC3)cc2C(O)C(F)(F)F)c1 (stereo partly drawn) [Example 442, (R,S)-trans-4-Methyl-1-[4-(2-m-tolyl-ethoxy)-3-(2,2,2-trifluoro-1-hydroxy-ethyl)-benzoylamino]-cyclohexanecarboxylic acid]	< 100
COc1ccc(C(=O)N[C@]2(C(=O)O)CC[C@H](C)CC2)cc1-c1cccc(C(F)(F)F)c1 [Example 333]	< 100
COc1ncc(C(=O)N[C@]2(C(=O)O)CC[C@@H](C)CC2)cc1OCCc1cccc(CCO)c1 [Example 90, trans-1-[(5-{2-[3-(2-Hydroxy-ethyl)-phenyl]-ethoxy}-6-methoxy-pyridine-3-carbonyl)-amino]-4-methyl-cyclohexanecarboxylic acid]	< 100
Cc1cccc(CCOc2cc(C(=O)NC3(C(=O)O)CCCCCC3)ccc2C(C)O)c1 (stereo not drawn) [Example 61, 1-[4-(1-Hydroxy-ethyl)-3-(2-m-tolyl-ethoxy)-benzoylamino]-cycloheptanecarboxylic acid]	100 to 1000
COc1ccc(C(=O)NC2(C(=O)O)CCC(CF)CC2)cc1OCCc1cccc(C)c1 (stereo not drawn) [Example 59, 4-Fluoromethyl-1-[4-methoxy-3-(2-m-tolyl-ethoxy)-benzoylamino]-cyclohexanecarboxylic acid]	< 100
Cc1cccc(CCOc2cc(C(=O)N[C@]3(C(=O)O)CC[C@@H](C)CC3)ccc2OCCO)c1 [Example 122, trans-1-[4-(2-Hydroxy-ethoxy)-3-(2-m-tolyl-ethoxy)-benzoylamino]-4-methyl-cyclohexanecarboxylic acid]	< 100
COc1ncc(C(=O)N[C@]2(C(=O)O)CC[C@@H](C(C)(C)C)CC2)cc1OCCc1cccc(C)c1 [Example 89, trans-4-tert-Butyl-1-{[6-methoxy-5-(2-m-tolyl-ethoxy)-pyridine-3-carbonyl]-amino}-cyclohexanecarboxylic acid]	1000 to 30000
COc1ccc(C(=O)N[C@]2(C(=O)O)CC[C@@H](C)CC2)cc1-c1cccc(OC(F)(F)F)c1 [Example 330]	1000 to 30000
COc1ncc(C(=O)N[C@]2(C(=O)O)CC[C@H](C)CC2)cc1-c1cccc(C(F)(F)F)c1 [Example 317]	< 100
COc1ccc(C(=O)NC2(C(=O)O)CCC(C(C)C)CC2)cc1OCCc1cccc(C)c1 (stereo not drawn) [Example 29]	< 100
COc1ccc(C(=O)NC2(C(=O)O)CCCCCC2)cc1-c1cccc(C#N)c1 [Example 106]	1000 to 30000
COc1ncc(C(=O)N[C@]2(C(=O)O)CC[C@H](C)CC2)cc1-c1cc(F)cc(F)c1 [Example 410]	< 100
CC[C@H]1CC[C@@](NC(=O)c2cnc(OC)c(-c3cccc(Cl)c3Cl)c2)(C(=O)O)CC1 [Example 309]	< 100
CC[C@H]1CC[C@](NC(=O)c2cnc(OC)c(OCCc3ccccc3)c2)(C(=O)O)CC1 [Example 358, cis-4-Ethyl-1-[(6-methoxy-5-phenethyloxy-pyridine-3-carbonyl)-amino]-cyclohexanecarboxylic acid]	< 100
CC[C@H]1CC[C@](NC(=O)c2ccc(OC)c(-c3cccc(C4COC4)c3)c2)(C(=O)O)CC1 [Example 458, Cis-4-Ethyl-1-[(6-methoxy-3′-oxetan-3-yl-biphenyl-3-carbonyl)-amino]-cyclohexanecarboxylic acid]	< 100
COc1ccc(C(=O)NC2(C(=O)O)CCCC2)cc1OCCc1cccc(C)c1 [Example 35]	1000 to 30000
COc1ccc(C(=O)N[C@]2(C(=O)O)CC[C@@H](C)CC2)cc1-c1c(F)cc(OC)c(Cl)c1F [Example 445, 1-[(3′-Chloro-2′,6′-difluoro-6,4′-dimethoxy-biphenyl-3-carbonyl)-amino]-4-methyl-cyclohexanecarboxylic acid]	< 100
COc1ncc(C(=O)N[C@]2(C(=O)O)CC[C@H](C)CC2)cc1-c1cccc(OC(F)(F)F)c1 [Example 307]	< 100
CC[C@H]1CC[C@@](NC(=O)c2cc(F)c(OC)c(OCCc3cccc(CCO)c3)c2)(C(=O)O)CC1 [Example 394, trans-4-Ethyl-1-(3-fluoro-5-{2-[3-(2-hydroxy-ethyl)-phenyl]-ethoxy}-4-methoxy-benzoylamino)-cyclohexanecarboxylic acid]	< 100

Structure (SMILES)	IC50 [nM]
CC[C@H]1CC[C@](NC(=O)c2cnc(O)c(-c3cccc(C(F)(F)F)c3)c2)(C(=O)O)CC1 [Example 426, cis-4-Ethyl-1-{[6-hydroxy-5-(3-trifluoromethyl-phenyl)-pyridine-3-carbonyl]-amino}-cyclohexanecarboxylic acid]	100 to 1000
COc1ncc(C(=O)N[C@]2(C(=O)O)CC[C@H](C)CC2)cc1OCCc1ccccc1 [Example 400, cis-1-{[6-Methoxy-5-(2-phenyl-ethoxy)-pyridine-3-carbonyl]-amino}-4-methyl-cyclohexanecarboxylic acid]	< 100
COc1ccc(C(=O)N[C@]2(C(=O)O)CC[C@@H](C)CC2)cc1-c1cccc(C(F)(F)F)c1 [Example 334]	100 to 1000
CC[C@H]1CC[C@](NC(=O)c2ccc(OC)c(OCCc3ccccc3)c2)(C(=O)O)CC1 [Example 206]	< 100
CC[C@H]1CC[C@@](NC(=O)c2cnc(OC)c(OCCc3cccc(Cl)c3)c2)(C(=O)O)CC1 [Example 397, trans-1-({5-[2-(3-Chloro-phenyl)-ethoxy]-6-methoxy-pyridine-3-carbonyl}-amino)-4-ethyl-cyclohexanecarboxylic acid]	< 100
CC[C@H]1CC[C@@](NC(=O)c2ccc(OCCO)c(OCCc3cccc(Cl)c3)c2)(C(=O)O)CC1 [Example 418, trans-1-[3-[2-(3-Chloro-phenyl)-ethoxy]-4-(2-hydroxy-ethoxy)-benzoylamino]-4-ethyl-cyclohexanecarboxylic acid]	< 100
COc1ccc(C(=O)N[C@]2(C(=O)O)CC[C@H](C(F)(F)F)CC2)cc1OCCc1cccc(C2COC2)c1 [Example 460, 1-{4-Methoxy-3-[2-(3-oxetan-3-yl-phenyl)-ethoxy]-benzoylamino}-4-trifluoromethyl-cyclohexanecarboxylic acid]	100 to 1000
CCc1sc(C(=O)N[C@]2(C(=O)O)CC[C@@H](CC)CC2)cc1OCCc1cccc(Cl)c1 [Example 440, trans-1-({4-[2-(3-Chloro-phenyl)-ethoxy]-5-ethyl-thiophene-2-carbonyl}-amino)-4-ethyl-cyclohexanecarboxylic acid]	100 to 1000
COc1ccc(C(=O)NC2(C(=O)O)CCCCCCC2)cc1OCCc1cccc(CCO)c1 [Example 108, 1-(3-{2-[3-(2-Hydroxy-ethyl)-phenyl]-ethoxy}-4-methoxy-benzoylamino)-cyclooctanecarboxylic acid]	< 100
COc1ccc(C(=O)NC2(C(=O)O)CCCC3(CC2)OCCO3)cc1OCCc1cccc(C)c1 (stereo not drawn) [Example 51, 8-[4-Methoxy-3-(2-m-tolyl-ethoxy)-benzoylamino]-1,4-dioxa-spiro[4.6]undecane-8-carboxylic acid]	< 100
CC[C@H]1CC[C@](NC(=O)c2ccc(CO)c(-c3cccc(C(F)(F)F)c3)c2)(C(=O)O)CC1 [Example 430, cis-4-Ethyl-1-[(6-hydroxymethyl-3′-trifluoromethyl-biphenyl-3-carbonyl)-amino]-cyclohexanecarboxylic acid]	100 to 1000
CC[C@H]1CC[C@@](NC(=O)c2cnc(OC)c(OCCc3cccc(CCO)c3)c2)(C(=O)O)CC1 [Example 424, trans-4-Ethyl-1-[(5-{2-[3-(2-hydroxy-ethyl)-phenyl]-ethoxy}-6-methoxy-pyridine-3-carbonyl)-amino]-cyclohexanecarboxylic acid]	< 100
CC[C@H]1CC[C@@](NC(=O)c2cnc(OC)c(OCCc3cccc(C)c3)c2)(C(=O)O)CC1 [Example 395, trans-4-Ethyl-1-{[6-methoxy-5-(2-m-tolyl-ethoxy)-pyridine-3-carbonyl]-amino}-cyclohexanecarboxylic acid]	< 100
COc1ccc(C(=O)NC2(C(=O)O)CCCCCC2)cc1OCCc1cccc(Cl)c1 [Example 10]	< 100
CC[C@H]1CC[C@@](NC(=O)c2cnc(OC)c(-c3cc(F)c(F)c(F)c3)c2)(C(=O)O)CC1 [Example 312]	100 to 1000
COc1ccc(-c2cc(C(=O)N[C@]3(C(=O)O)CC[C@H](C)CC3)cnc2OC)cc1Cl [Example 319]	< 100
CC[C@H]1CC[C@](NC(=O)c2cnc(OC)c(OCCc3cccc(OC(F)(F)F)c3)c2)(C(=O)O)CC1 [Example 399, cis-4-Ethyl-1-({6-methoxy-5-[2-(3-trifluoromethoxy-phenyl)-ethoxy]-pyridine-3-carbonyl}-amino)-cyclohexanecarboxylic acid]	< 100
COc1ncc(C(=O)N[C@]2(C(=O)O)CC[C@H](C(F)(F)F)CC2)cc1-c1cccc(C(F)(F)F)c1F [Example 377]	< 100
COc1ncc(C(=O)N[C@]2(C(=O)O)CC[C@@H](C)CC2)cc1OCCc1cccc(C)c1 [Example 80, trans-1-{[6-Methoxy-5-(2-m-tolyl-ethoxy)-pyridine-3-carbonyl]-amino}-4-methyl-cyclohexanecarboxylic acid]	< 100
COc1ccc(C(=O)NC2(C(=O)O)CCCCCC2)cc1OCCc1cccc(CCO)c1 [Example 107, 1-(3-{2-[3-(2-Hydroxy-ethyl)-phenyl]-ethoxy}-4-methoxy-benzoylamino)-cycloheptanecarboxylic acid]	< 100
COc1ccc(C(=O)NC2(C(=O)O)CC2)cc1OCCc1cccc(C)c1 [Example 368]	100 to 1000
